Data from patent US11820787B2, “Benfotiamine derivatives in the treatment of alzheimer's disease” (SHANGHAI RAISING PHARMACEUTICAL CO., LTD., priority 2019, dated 2023).

Columns and labels:
Aβ42 = Aβ42 content in culture supernatant of HEK293APP/sw overexpression cells (ELISA, adjusted to total protein); format: cell-based; conditions: for Aβ42 content: secreted by APP/293 (HEK293APP/sw) cells, 400 μM, treated for 24 h, blank control 11.08
Method: (§1) (1) BCA protein concentration assay kit is purchased from Beyotime, Aβ40 and AB42 test kits are purchased from Wako Company. Except the fetal bovine serum (FBS) is purchased from Shanghai Pulong Biotechnology Research and Development Co. Ltd., the other related reagents are purchased from Gibico Company.
(§2) (2) HEK293APP/sw overexpression cell culture: cells are cultured in 48 microwell plate with DMEM culture solution (including 10% FBS, 100 μg/mL G418 (Geneticin) and penicillin and streptomycin), and a 4 mM stock in DMEM is diluted with DMEM to 400 μM and added to cell culture medium by 500 μL/well at 70% cell density and treated for 24 h.
(§3) (3) After the supernatant of culture solution is added to the BCA reagent at room temperature for 30 minutes, the absorption value of each well is measured at the OD 570 nm by the microplate reader and the total protein concentration is calculated according to the protein standard curve. Meanwhile, the concentration of Aβ40 and Aβ42 in the supernatant of culture solution is measured. Briefly, the supernatant is added to the 96 microwell plate coated by primary antibodies and incubated at 4° C. for overnight. Then the solution in the 96 microwell plate is removed and washed, and HRP (horseradish oxide enzyme) marked antibody is added to the solution and incubated at 4° C. for 2 hours. The antibody is removed and the plate is washed. After TMB substrate is added to each well at room temperature for 30 minutes, and the stop buffer is added to each well. The absorption value of each well is measured at the OD 450 nm by the microplate reader and the concentrations of Aβ40 and Aβ42 are calculated according to the standard curves of Aβ40 and Aβ42 respectively, and the final concentration is obtained by adjusting the concentrations of Aβ40 and Aβ42 according to the total protein concentration.

Aβ40 = Aβ40 content in culture supernatant of HEK293APP/sw overexpression cells (ELISA, adjusted to total protein); format: cell-based; conditions: for Aβ40 content: secreted by APP/293 (HEK293APP/sw) cells, 400 μM, treated for 24 h, blank control 127.81
Method: as §1, §2, §3

| Molecule | effect on the generation of Aβ42 peptides compared with blank control (Aβ42; APP/293 cells, in words) | Aβ42 content (Aβ42) [pmol/L] | effect on the generation of Aβ40 peptides compared with blank control (Aβ40; APP/293 cells, in words) | Aβ40 content (Aβ40) [pmol/L] |
| --- | --- | --- | --- | --- |
| C/C(=C(\CCOP(=O)(O)O)SC(=O)c1ccccc1)N(C=O)Cc1cnc(C)nc1N [Comparative Example 2, S-[2-[[(4-amino-2-methyl-5-pyrimidinyl)methyl]formylamino]-1-[2-(phosphonooxy)ethyl]-1-propenyl]ester, reference compound] | good effect on reducing the generation | 5.04 | good effect on reducing the generation | 53.77 |
| COc1cccc(C(=O)S/C(CCOP(=O)(O)O)=C(/C)N(C=O)Cc2cnc(C)nc2N)c1 [Example 1, (Z)-S-(2-(N-((4-amino-2-methylpyrimidin-5-yl)methyl)formamido)-5-(phosphonooxy)pent-2-en-3-yl)3-methoxybenzothioate] | – | 12.14 | – | 135.09 |
| CCOc1ccc(C(=O)S/C(CCOP(=O)(O)O)=C(/C)N(C=O)Cc2cnc(C)nc2N)cc1 [Example 2, (Z)-S-(2-(N-((4-amino-2-methylpyrimidin-5-yl)methyl)formamido)-5-(phosphonooxy)pent-2-en-3-yl)4-ethoxybenzothioate] | – | 7.19 | – | 93.07 |
| C/C(=C(\CCOP(=O)(O)O)SC(=O)c1ccc(O)cc1)N(C=O)Cc1cnc(C)nc1N [Example 3, (Z)-S-(2-(N-((4-amino-2-methylpyrimidin-5-yl)methyl)formamido)-5-(phosphonooxy)pent-2-en-3-yl)4-hydroxybenzothioate] | – | 10.79 | – | 121.48 |
| C/C(=C(\CCOP(=O)(O)O)SC(=O)c1c(F)cccc1F)N(C=O)Cc1cnc(C)nc1N [Example 4, (Z)-S-(2-(N-((4-amino-2-methylpyrimidin-5-yl)methyl)formamido)-5-(phosphonooxy)pent-2-en-3-yl)2,6-difluorobenzothioate] | – | 8.86 | – | 133.25 |
| C/C(=C(\CCOP(=O)(O)O)SC(=O)c1cccc(Br)c1)N(C=O)Cc1cnc(C)nc1N [Example 5, (Z)-S-(2-(N-((4-amino-2-methylpyrimidin-5-yl)methyl)formamido)-5-(phosphonooxy)pent-2-en-3-yl)3-bromobenzothioate] | – | 6.77 | – | 25.65 |
| C/C(=C(\CCOP(=O)(O)O)SC(=O)c1cccc([N+](=O)[O-])c1)N(C=O)Cc1cnc(C)nc1N [Example 6, (Z)-S-(2-(N-((4-amino-2-methylpyrimidin-5-yl)methyl)formamido)-5-(phosphonooxy)pent-2-en-3-yl)3-nitrobenzothioate] | – | 3.31 | – | 81.05 |
| C/C(=C(\CCOP(=O)(O)O)SC(=O)c1ccc(F)cc1)N(C=O)Cc1cnc(C)nc1N [Example 7, (Z)-S-(2-(N-((4-amino-2-methylpyrimidin-5-yl)methyl)formamido)-5-(phosphonooxy)pent-2-en-3-yl)4-fluorobenzothioate] | – | 13.08 | – | 152.06 |
| C/C(=C(\CCOP(=O)(O)O)SC(=O)c1cccc(F)c1)N(C=O)Cc1cnc(C)nc1N [Example 8, (Z)-S-(2-(N-((4-amino-2-methylpyrimidin-5-yl)methyl)formamido)-5-(phosphonooxy)pent-2-en-3-yl)3-fluorobenzothioate] | – | 8.35 | – | 87.33 |
| C/C(=C(\CCOP(=O)(O)O)SC(=O)c1ccccc1F)N(C=O)Cc1cnc(C)nc1N [Example 9, (Z)-S-(2-(N-((4-amino-2-methylpyrimidin-5-yl)methyl)formamido)-5-(phosphonooxy)pent-2-en-3-yl)2-fluorobenzothioate] | – | – | – | 15.00 |
| C/C(=C(\CCOP(=O)(O)O)SC(=O)c1ccccc1C)N(C=O)Cc1cnc(C)nc1N [Example 10, (Z)-S-(2-(N-((4-amino-2-methylpyrimidin-5-yl)methyl)formamido)-5-(phosphonooxy)pent-2-en-3-yl)2-methylbenzothioate] | – | 9.78 | – | 112.32 |
| C/C(=C(\CCOP(=O)(O)O)SC(=O)c1ccc([N+](=O)[O-])cc1)N(C=O)Cc1cnc(C)nc1N [Example 11, (Z)-S-(2-(N-((4-amino-2-methylpyrimidin-5-yl)methyl)formamido)-5-(phosphonooxy)pent-2-en-3-yl)4-nitrobenzothioate] | – | 5.21 | – | 60.98 |
| COc1ccc(C(=O)S/C(CCOP(=O)(O)O)=C(/C)N(C=O)Cc2cnc(C)nc2N)cc1 [Example 12, (Z)-S-(2-(N-((4-amino-2-methylpyrimidin-5-yl)methyl)formamido)-5-(phosphonooxy)pent-2-en-3-yl)4-methoxybenzothioate] | – | 3.92 | – | 41.60 |
| C/C(=C(\CCOP(=O)(O)O)SC(=O)c1cccc(Cl)c1)N(C=O)Cc1cnc(C)nc1N [Example 13, (Z)-S-(2-(N-((4-amino-2-methylpyrimidin-5-yl)methyl)formamido)-5-(phosphonooxy)pent-2-en-3-yl)3-chlorobenzothioate] | – | 6.37 | – | 69.35 |
| C/C(=C(\CCOP(=O)(O)O)SC(=O)c1cccc(C)c1)N(C=O)Cc1cnc(C)nc1N [Example 14, (Z)-S-(2-(N-((4-amino-2-methylpyrimidin-5-yl)methyl)formamido)-5-(phosphonooxy)pent-2-en-3-yl)3-methylbenzothioate] | – | 6.41 | – | 97.97 |
| C/C(=C(\CCOP(=O)(O)O)SC(=O)c1ccc(Cl)cc1)N(C=O)Cc1cnc(C)nc1N [Example 15, (Z)-S-(2-(N-((4-amino-2-methylpyrimidin-5-yl)methyl)formamido)-5-(phosphonooxy)pent-2-en-3-yl)4-chlorobenzothioate] | – | 7.16 | – | 60.27 |
| CCOc1ccccc1C(=O)S/C(CCOP(=O)(O)O)=C(/C)N(C=O)Cc1cnc(C)nc1N [Example 16] | – | 5.93 | – | 42.76 |
| C/C(=C(\CCOP(=O)(O)O)SC(=O)c1ccc(Br)cc1)N(C=O)Cc1cnc(C)nc1N [Example 17, (Z)-S-(2-(N-((4-amino-2-methylpyrimidin-5-yl)methyl)formamido)-5-(phosphonooxy)pent-2-en-3-yl)4-bromobenzothioate] | – | 8.89 | – | 112.53 |
| C=Cc1cccc(C(=O)S/C(CCOP(=O)(O)O)=C(/C)N(C=O)Cc2cnc(C)nc2N)c1 [Example 20, (Z)-S-(2-(N-((4-amino-2-methylpyrimidin-5-yl)methyl)formamido)-5-(phosphonooxy)pent-2-en-3-yl)3-vinylbenzothioate] | – | 10.33 | – | 117.16 |
| C=Cc1ccc(C(=O)S/C(CCOP(=O)(O)O)=C(/C)N(C=O)Cc2cnc(C)nc2N)cc1 [Example 21, (Z)-S-(2-(N-((4-amino-2-methylpyrimidin-5-yl)methyl)formamido)-5-(phosphonooxy)pent-2-en-3-yl)4-vinylbenzothioate] | – | 11.24 | – | 127.41 |
| C/C(=C(\CCOP(=O)(O)O)SC(=O)c1ccccc1[N+](=O)[O-])N(C=O)Cc1cnc(C)nc1N [Example 22, (Z)-S-(2-(N-((4-amino-2-methylpyrimidin-5-yl)methyl)formamido)-5-(phosphonooxy)pent-2-en-3-yl)2-nitrobenzothioate] | – | 11.31 | – | 127.81 |
| C/C(=C(\CCOP(=O)(O)O)SC(=O)c1c(C)cccc1C)N(C=O)Cc1cnc(C)nc1N [Example 23, (Z)-S-(2-(N-((4-amino-2-methylpyrimidin-5-yl)methyl)formamido)-5-(phosphonooxy)pent-2-en-3-yl)2,6-dimethylbenzothioate] | – | 12.64 | – | 143.18 |
| (Z)-S-(2-(N-((4-amino-2-methylpyrimidin-5-yl)methyl)formamido)-5-(phosphonooxy)pent-2-en-3-yl)2-bromobenzothioate [Example 18] | – | 2.60 | – | 21.19 |
| (Z)-S-(2-(N-((4-amino-2-methylpyrimidin-5-yl)methyl)formamido)-5-(phosphonooxy)pent-2-en-3-yl)2-iodobenzothioate [Example 19] | – | 5.50 | – | 62.74 |
